Where a SMILES comes first, the peptide text is derived from it.
What was measured:
[1] = Odor development on storage in sealed containers; format: physicochemical; conditions: recrystallized sample, sealed container, twenty-nine days at 45°C.
Description: Samples of virtually odorless, recrystallized D,L-methionine, glycyl-D,L-methionine, and D,L-alanyl-D,L-methionine were stored in sealed containers for twenty-nine days at 45°C.

[2] = Chick feeding test, body weight and feed efficiency on fortified corn-soy rations; format: in vivo, cockerels (Barred Rock males x Rhode Island females); conditions: for difference between responses from methionine and glycylmethionine supplemented rations: 0.15% D,L-methionine vs 0.2% glycyl-D,L-methionine; for feed efficiencies / growth: corn-soy poultry ration with 0.15% D,L-methionine or 0.2% glycyl-D,L-methionine
Text: For this test, cockerels are produced from a cross of Barred Rock males and Rhode Island females. All the 150 cockerels are selected on the basis that their weight differs no more than 2 grams. The birds are maintained on an all vegetable protein corn-soy basal diet for a 2-week preliminary period. At the end of this period, a median group of 90 birds is selected on the basis of weight, and they are then evenly distributed into three experimental groups, which in turn are placed on the experimental rations (Table 2). The level of glycyl-D,L-methionine in Diet No. 3 is equivalent to the level of D,L-methionine in Diet No. 2, on the basis of L-methioninecontent. The birds are weighed weekly and their feed consumption also determined weekly, to permit weekly feed efficiency evaluations. […] | -- -- 92 g.

[3] = test system: Leuconostoc mesenteroides P-60; test: L-methionine bioavailability from dipeptides by turbidimetric growth response of a methionine-requiring bacterial mutant; format: cell-based; conditions: for utilization as a source of L-methionine by L. mesenteroides P-60: 17 hours of incubation at 37°C.; for L-Methionine Response / L-Methionine, % of Theoretical: 17 hours, 37°C.
Text: The utilization of methionine-containing peptide can be shown, for example, in animal feeding tests. However, the formation of free methionine can also be shown directly in tests with a microorganism requiring methionine for its growth and reproduction. The following Example describes a quantitative test involving a known bacterial mutant.
Leuconostoc mesenteroides P-60 was the bacterial mutant used to assess the biological availability of L-methionine in glycyl-D,L-methionine, glycyl-L-methionine and L-methionylglycine. This mutant is unable to synthesize methionine and therefore requires an external source of this amino acid.
Under aseptic conditions, a substrate devoid of L-methionine was supplemented with graded amounts of glycyl-D,L-methionine, glycyl-L-methionine, and L-methionylglycine and then inoculated with a drop of a washed L. mesenteroides P-60 culture. After 17 hours of incubation at 37°C., the growth of L. mesenteroides P-60 in each of the culture tubes was measured turbidimetrically, at a wavelength of […]. Based on the growth response of this mutant to a similar treatment with a standard L-methionine solution of known concentration, the L-methionine response, if any, to the candidate peptides was evaluated.

[4] = level tested 12 μg./tube, calculated L-methionine equivalence 4.0 μg. (glycyl-D,L-methionine) or 8.0 μg. (L-dipeptides)
[5] = level tested 24 μg./tube, calculated L-methionine equivalence 8.0 μg.
[6] = level tested 6 μg./tube, calculated L-methionine equivalence 4.0 μg.

Which odor after storage [1] does the source give for `CSCCC(NC(=O)C(C)N)C(=O)O` (mixture of isomers) [D,L-alanyl-D,L-methionine] here?
Its odor after storage is “developed a typical sulfurous odor”.

Which “difference between responses from methionine and glycylmethionine supplemented rations” value [2] does the source give for `CSCCC(N)C(=O)O` (racemic) [D,L-Methionine, D,L-methionine, reference compound] here?
Its value is “No significant difference”.

What about the feed efficiencies [2] of the same molecule?
The feed efficiencies was “improved feed efficiencies”.

What about the growth [2] of the same molecule?
Its growth is “significant growth increases”.

And the odor after storage [1]?
Its odor after storage is “developed a typical sulfurous odor”.

For `CSCCC(NC(=O)CN)C(=O)O` (racemic) [Glycyl-D,L-Methionine, glycyl-D,L-methionine], which “utilization as a source of L-methionine by L. mesenteroides P-60” value (shortened to “utilization … by L. mesenteroides P-60”) [3] is on record?
Its value is “can utilize”.

And the “L-Methionine Response” value [3, 4]?
The value was 3.5 µg.

What about the “L-Methionine, % of Theoretical” value [3, 4] of the same molecule?
Its value is 88%.

And the “L-Methionine Response” value [3, 5]?
Its value is 7.5 µg.

And the “L-Methionine, % of Theoretical” value [3, 5]?
Its value is 94%.

And the “difference between responses from methionine and glycylmethionine supplemented rations” value [2]?
Its value is “No significant difference”.

And the feed efficiencies [2]?
The feed efficiencies was “improved feed efficiencies”.

And the growth [2]?
Its growth is “significant growth increases”.

What about the odor after storage [1] of the same molecule?
Its odor after storage is “still virtually odor-free”.

Which “utilization … by L. mesenteroides P-60” value [3] does the source give for `CSCC[C@H](NC(=O)CN)C(=O)O` [Glycyl-L-Methionine, glycyl-L-methionine] here?
Its value is “can utilize”.

And the “L-Methionine Response” value [3, 6]?
The value was 4.5 µg.

And the “L-Methionine, % of Theoretical” value [3, 6]?
The value was 112%.

And the “L-Methionine Response” value [3, 4]?
Its value is 7.8 µg.

What about the “L-Methionine, % of Theoretical” value [3, 4] of the same molecule?
The value was 97%.

With `CSCC[C@H](N)C(=O)NCC(=O)O` [L-Methionylglycine, L-methionylglycine] (H-Met-Gly-OH) as the molecule, how does the “utilization … by L. mesenteroides P-60” value [3] read?
The value was “can utilize”.

What about the “L-Methionine Response” value [3, 6] of the same molecule?
The value was 4.0 µg.

What about the “L-Methionine, % of Theoretical” value [3, 6] of the same molecule?
The value was 100%.

What about the “L-Methionine Response” value [3, 4] of the same molecule?
The value was 7.5 µg.

And the “L-Methionine, % of Theoretical” value [3, 4]?
Its value is 94%.
